Reference: ChEMBL document CHEMBL5036320, “Discovery of Icenticaftor (QBW251), a Cystic Fibrosis Transmembrane Conductance Regulator Potentiator with Clinical Efficacy in Cystic Fibrosis and Chronic Obstructive Pulmonary Disease” (J Med Chem, 2021)
≈ marks a conversion by molar mass, not a printed value.

Key:
[1] = Solubility of the compound at pH 6.8; type: physicochemical; details: buffer
[2] = Oral bioavailability in Sprague-Dawley rat at 3 mg/kg measured upto 48 hrs by LC-MS/MS analysis; type: ADME, organism-based; details: in vivo
[3] = Cmax in Sprague-Dawley rat at 3 mg/kg, po and 0.5 mg/kg, iv measured upto 48 hrs by LC-MS/MS analysis; type: ADME, organism-based; parameters: dose 3 mg/kg, time <=48; details: in vivo
[4] = target: T1, Cystic fibrosis transmembrane conductance regulator (Homo sapiens, UniProt P13569, F508DEL); test: Potentiation of CFTR F508del mutant (unknown origin) expressed in CHO cells assessed as chloride transport by measuring membrane potential incubated for 5 to 30 mins in presence of forskolin by Quattro assay; type: cell-based
T1 sequence (P13569 as listed by the source): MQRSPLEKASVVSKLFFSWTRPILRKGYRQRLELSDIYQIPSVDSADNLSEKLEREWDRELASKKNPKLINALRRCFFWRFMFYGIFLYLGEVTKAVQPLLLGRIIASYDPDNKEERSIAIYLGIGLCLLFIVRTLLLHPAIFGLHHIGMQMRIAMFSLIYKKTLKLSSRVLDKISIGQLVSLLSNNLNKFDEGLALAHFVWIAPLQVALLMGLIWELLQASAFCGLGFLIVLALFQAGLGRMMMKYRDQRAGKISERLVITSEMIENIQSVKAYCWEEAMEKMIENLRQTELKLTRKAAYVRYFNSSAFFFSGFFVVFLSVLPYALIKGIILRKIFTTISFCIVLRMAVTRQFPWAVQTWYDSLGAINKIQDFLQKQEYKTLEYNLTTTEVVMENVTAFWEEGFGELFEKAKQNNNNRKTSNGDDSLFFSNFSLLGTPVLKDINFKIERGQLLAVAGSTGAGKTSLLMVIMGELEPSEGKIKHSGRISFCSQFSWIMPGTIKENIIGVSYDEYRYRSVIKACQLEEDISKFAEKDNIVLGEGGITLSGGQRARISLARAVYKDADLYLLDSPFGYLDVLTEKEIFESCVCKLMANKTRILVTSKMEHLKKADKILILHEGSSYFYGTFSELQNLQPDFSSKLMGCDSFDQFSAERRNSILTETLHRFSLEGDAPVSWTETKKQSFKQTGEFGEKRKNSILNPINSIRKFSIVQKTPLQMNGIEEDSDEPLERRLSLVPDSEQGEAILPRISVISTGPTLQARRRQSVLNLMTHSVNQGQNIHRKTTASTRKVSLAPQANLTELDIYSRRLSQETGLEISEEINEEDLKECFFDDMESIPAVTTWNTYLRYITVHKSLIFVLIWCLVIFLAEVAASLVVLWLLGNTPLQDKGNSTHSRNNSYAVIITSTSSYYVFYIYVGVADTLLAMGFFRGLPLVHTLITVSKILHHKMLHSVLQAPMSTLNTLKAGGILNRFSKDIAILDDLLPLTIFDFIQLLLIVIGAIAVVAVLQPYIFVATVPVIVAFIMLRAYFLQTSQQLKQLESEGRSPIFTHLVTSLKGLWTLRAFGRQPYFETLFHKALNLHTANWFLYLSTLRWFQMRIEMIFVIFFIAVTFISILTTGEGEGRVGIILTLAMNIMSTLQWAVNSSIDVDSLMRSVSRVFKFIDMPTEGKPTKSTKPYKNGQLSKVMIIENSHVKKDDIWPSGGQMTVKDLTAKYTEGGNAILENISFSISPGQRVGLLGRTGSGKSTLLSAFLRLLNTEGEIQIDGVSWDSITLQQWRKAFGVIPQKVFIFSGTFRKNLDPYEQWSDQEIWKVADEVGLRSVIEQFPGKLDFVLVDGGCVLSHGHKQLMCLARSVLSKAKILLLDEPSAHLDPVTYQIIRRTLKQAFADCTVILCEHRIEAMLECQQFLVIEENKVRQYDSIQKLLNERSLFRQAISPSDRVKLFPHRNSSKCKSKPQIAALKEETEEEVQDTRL

[5] = system: Cystic fibrosis transmembrane conductance regulator (Homo sapiens), P13569 [F508del]; test: Potentiation of CFTR F508del mutant (unknown origin) expressed in CHO cells assessed as chloride transport by measuring membrane potential incubated for 5 to 30 mins in presence of forskolin by Quattro assay relative to PG-01; type: cell-based; parameters: concentration or dose not given beside the values; details: filed as activator, time 5-30 min
Sequence of Cystic fibrosis transmembrane conductance regulator (Homo sapiens), P13569 [F508del] (P13569 as listed by the source): as above

[6] = Clearance in Sprague-Dawley rat at 3 mg/kg, po and 0.5 mg/kg, iv measured upto 48 hrs by LC-MS/MS analysis; type: ADME, organism-based; details: in vivo
[7] = Volume of distribution at steady state in Sprague-Dawley rat at 3 mg/kg, po and 0.5 mg/kg, iv measured upto 48 hrs by LC-MS/MS analysis; type: ADME, organism-based; details: in vivo, read-out: Vdss
[8] = Mean residence time in Sprague-Dawley rat at 3 mg/kg, po and 0.5 mg/kg, iv measured upto 48 hrs by LC-MS/MS analysis; type: ADME, organism-based; details: in vivo
[9] = Plasma Protein binding in Sprague-Dawley rat at 5 uM incubated for 4 hrs by rapid equilibrium dialysis; type: ADME, cell-free; details: read-out: PPB (converted)
[10] = Cmax in Sprague-Dawley rat at 3 mg/kg, po and 1 mg/kg, iv measured upto 48 hrs by LC-MS/MS analysis; type: ADME, organism-based; parameters: dose 3 mg/kg, time <=48; details: in vivo
[11] = Unbound Cmax in Sprague-Dawley rat at 3 mg/kg, po and 1 mg/kg, iv measured upto 48 hrs by LC-MS/MS analysis; type: ADME, organism-based; details: in vivo
[12] = Volume of distribution in Sprague-Dawley rat at 3 mg/kg, po and 1 mg/kg, iv measured upto 48 hrs by LC-MS/MS analysis; type: ADME, organism-based; details: in vivo
[13] = Mean residence time in Sprague-Dawley rat at 3 mg/kg, po and 1 mg/kg, iv measured upto 48 hrs by LC-MS/MS analysis; type: ADME, organism-based; details: in vivo
[14] = Oral bioavailability in Beagle dog at 3 mg/kg after 48 hrs by LC-MS/MS analysis; type: ADME, organism-based, Canis lupus familiaris; details: in vivo
[15] = Oral bioavailability in cynomolgus monkey at 10 mg/kg after 48 hrs by LC-MS/MS analysis; type: ADME, organism-based, Macaca fascicularis; details: in vivo
[16] = Cmax in Beagle dog at 3 mg/kg, po or 0.46 mg/kg, iv after 48 hrs by LC-MS/MS analysis; type: ADME, organism-based, Canis lupus familiaris; parameters: time 48 hrs, dose 3 mg/kg; details: in vivo
[17] = Cmax in cynomolgus monkey at 10 mg/kg, po or 0.1 mg/kg, iv after 48 hrs by LC-MS/MS analysis; type: ADME, organism-based, Macaca fascicularis; parameters: time 48 hrs, dose 10 mg/kg; details: in vivo
[18] = Unbound Cmax in Beagle dog at 3 mg/kg, po or 0.46 mg/kg, iv after 48 hrs by LC-MS/MS analysis; type: ADME, organism-based, Canis lupus familiaris; details: in vivo
[19] = Unbound Cmax in cynomolgus monkey plasma measured at 10 mg/kg, po or 0.1 mg/kg, iv after 48 hrs by LC-MS/MS analysis; type: ADME, organism-based, Macaca fascicularis; details: in vivo
[20] = Clearance in Beagle dog plasma at 3 mg/kg, po or 0.46 mg/kg, iv after 48 hrs by LC-MS/MS analysis; type: ADME, organism-based, Canis lupus familiaris
[21] = Clearance in cynomolgus monkey plasma at 10 mg/kg, po or 0.1 mg/kg, iv after 48 hrs by LC-MS/MS analysis; type: ADME, organism-based, Macaca fascicularis
[22] = Clearance in Beagle dog blood at 3 mg/kg, po or 0.46 mg/kg, iv after 48 hrs by LC-MS/MS analysis; type: ADME, organism-based, Canis lupus familiaris
[23] = Clearance in cynomolgus monkey blood at 10 mg/kg, po or 0.1 mg/kg, iv after 48 hrs by LC-MS/MS analysis; type: ADME, organism-based, Macaca fascicularis
[24] = Volume of distribution at steady state in Beagle dog at 3 mg/kg, po or 0.46 mg/kg, iv after 48 hrs by LC-MS/MS analysis; type: ADME, organism-based, Canis lupus familiaris; details: in vivo, read-out: Vdss
[25] = Volume of distribution at steady state in cynomolgus monkey at 10 mg/kg, po or 0.1 mg/kg, iv after 48 hrs by LC-MS/MS analysis; type: ADME, organism-based, Macaca fascicularis; details: in vivo, read-out: Vdss
[26] = Mean residence time in Beagle dog at 3 mg/kg, po or 0.46 mg/kg, iv after 48 hrs by LC-MS/MS analysis; type: ADME, organism-based, Canis lupus familiaris; details: in vivo
[27] = Mean residence time in cynomolgus monkey at 10 mg/kg, po or 0.1 mg/kg, iv after 48 hrs by LC-MS/MS analysis; type: ADME, organism-based, Macaca fascicularis; details: in vivo
[28] = target: T1, Cystic fibrosis transmembrane conductance regulator; test: Potentiation of CFTR F508del mutant (unknown origin) expressed in FRT cells assessed as chloride transport by measuring membrane potential in presence of forskolin; type: cell-based
[29] = system: Cystic fibrosis transmembrane conductance regulator (Homo sapiens), P13569 [F508del]; test: Potentiation of CFTR F508del mutant (unknown origin) expressed in FRT cells assessed as chloride transport by measuring membrane potential in presence of forskolin relative to PG-01; type: cell-based; details: filed as activator
[30] = target: T2, Cystic fibrosis transmembrane conductance regulator (Homo sapiens, UniProt P13569); test: Potentiation of wild-type CFTR (unknown origin) expressed in FRT cells assessed as chloride transport by measuring membrane potential in presence of forskolin; type: cell-based
Target sequence in this assay (P13569 whole entry): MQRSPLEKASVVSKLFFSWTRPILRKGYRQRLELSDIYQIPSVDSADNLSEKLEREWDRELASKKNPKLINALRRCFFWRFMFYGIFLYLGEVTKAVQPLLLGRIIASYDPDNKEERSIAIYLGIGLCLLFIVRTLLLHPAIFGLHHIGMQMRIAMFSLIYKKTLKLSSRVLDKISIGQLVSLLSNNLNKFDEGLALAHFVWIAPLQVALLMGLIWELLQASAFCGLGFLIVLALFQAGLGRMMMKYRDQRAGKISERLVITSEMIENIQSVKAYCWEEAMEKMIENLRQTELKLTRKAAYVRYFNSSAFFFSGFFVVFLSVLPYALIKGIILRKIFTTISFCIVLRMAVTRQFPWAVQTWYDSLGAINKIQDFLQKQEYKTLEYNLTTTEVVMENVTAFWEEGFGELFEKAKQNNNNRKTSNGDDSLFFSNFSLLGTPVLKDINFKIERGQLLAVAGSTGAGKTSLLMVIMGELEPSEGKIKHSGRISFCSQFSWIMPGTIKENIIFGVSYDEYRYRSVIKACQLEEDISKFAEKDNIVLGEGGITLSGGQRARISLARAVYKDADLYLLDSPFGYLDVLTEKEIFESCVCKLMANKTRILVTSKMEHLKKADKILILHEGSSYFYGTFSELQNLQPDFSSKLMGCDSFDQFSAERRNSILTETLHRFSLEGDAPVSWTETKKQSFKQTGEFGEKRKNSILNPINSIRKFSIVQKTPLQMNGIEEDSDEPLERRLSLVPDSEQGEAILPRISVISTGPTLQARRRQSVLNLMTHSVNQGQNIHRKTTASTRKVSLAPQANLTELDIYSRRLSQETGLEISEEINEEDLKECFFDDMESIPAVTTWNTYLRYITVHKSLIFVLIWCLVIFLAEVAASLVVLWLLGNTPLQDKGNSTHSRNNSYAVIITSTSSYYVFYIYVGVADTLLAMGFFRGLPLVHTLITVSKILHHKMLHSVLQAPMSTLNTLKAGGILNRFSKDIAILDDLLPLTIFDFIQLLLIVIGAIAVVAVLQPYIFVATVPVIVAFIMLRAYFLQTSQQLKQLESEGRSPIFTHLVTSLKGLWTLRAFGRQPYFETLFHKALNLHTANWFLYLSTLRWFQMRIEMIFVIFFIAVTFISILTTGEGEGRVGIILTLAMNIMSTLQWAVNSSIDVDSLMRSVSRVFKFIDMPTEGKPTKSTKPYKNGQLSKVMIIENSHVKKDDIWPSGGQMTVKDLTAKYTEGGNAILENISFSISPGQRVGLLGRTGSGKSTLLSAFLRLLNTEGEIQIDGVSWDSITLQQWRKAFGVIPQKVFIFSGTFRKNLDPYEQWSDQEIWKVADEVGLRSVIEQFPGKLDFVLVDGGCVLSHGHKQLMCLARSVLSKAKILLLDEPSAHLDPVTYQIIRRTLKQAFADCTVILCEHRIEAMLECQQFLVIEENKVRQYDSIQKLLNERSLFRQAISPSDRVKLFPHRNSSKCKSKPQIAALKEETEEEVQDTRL

[31] = target: T2, Cystic fibrosis transmembrane conductance regulator; test: Potentiation of wild-type CFTR (unknown origin) expressed in FRT cells assessed as chloride transport by measuring membrane potential in presence of forskolin relative to PG-01; type: cell-based; details: filed as activator
Target sequence in this assay (P13569 whole entry, looked up): as the sequence (P13569 whole entry) above

[32] = target: Cystic fibrosis transmembrane conductance regulator (Homo sapiens, UniProt P13569, G551D); test: Potentiation of CFTR G551D mutant (unknown origin) expressed in FRT cells assessed as chloride transport by measuring membrane potential in presence of forskolin; type: cell-based
Sequence of Cystic fibrosis transmembrane conductance regulator (Homo sapiens, UniProt P13569, G551D) (P13569 whole entry G551D): as the sequence (P13569 whole entry) above, with G551D counted along it

[33] = system: Cystic fibrosis transmembrane conductance regulator (Homo sapiens), P13569 [G551D]; test: Potentiation of CFTR G551D mutant (unknown origin) expressed in FRT cells assessed as chloride transport by measuring membrane potential in presence of forskolin relative to PG-01; type: cell-based; details: filed as activator
Sequence of Cystic fibrosis transmembrane conductance regulator (Homo sapiens), P13569 [G551D] (P13569 whole entry G551D): as the sequence (P13569 whole entry) above, with G551D counted along it

[34] = target: T1, Cystic fibrosis transmembrane conductance regulator; test: Potentiation of CFTR F508 deletion mutant (unknown origin) expressed in HBE cells assessed as change in short circuit current in presence of forskolin and amiloride; type: cell-based
[35] = system: Cystic fibrosis transmembrane conductance regulator (Homo sapiens), P13569 [F508del]; test: Potentiation of CFTR F508 deletion mutant (unknown origin) expressed in HBE cells assessed as change in short circuit current in presence of forskolin and amiloride relative to PG-01; type: cell-based; details: filed as activator
[36] = target: T2, Cystic fibrosis transmembrane conductance regulator; test: Potentiation of wild type CFTR (unknown origin) expressed in HBE cells assessed as change in short circuit current in presence of forskolin and amiloride; type: cell-based
Target sequence in this assay (P13569 whole entry): as the sequence (P13569 whole entry) above

[37] = target: T2, Cystic fibrosis transmembrane conductance regulator; test: Potentiation of wild type CFTR (unknown origin) expressed in HBE cells assessed as change in short circuit current in presence of forskolin and amiloride relative to PG-01; type: cell-based; details: filed as activator
Target sequence in this assay (P13569 whole entry, looked up): as the sequence (P13569 whole entry) above

[38] = Toxicity in Wistar Han rat assessed as NOAEL; details: in vivo, dose 10 mg/kg
[39] = Toxicity in Wistar Han rat assessed as tolerability at 100 mg/kg, po after 2 days; type: organism-based; details: in vivo, 48 h, time 2 day
[40] = Toxicity in human assessed as tolerability upto […], po bid; type: organism-based; details: in vivo
[41] = Clearance in Sprague-Dawley rat at 3 mg/kg, po and 1 mg/kg, iv measured upto 48 hrs by LC MS/MS analysis; type: ADME, organism-based; details: in vivo

## Nc1cc(C(F)(F)F)c(Br)nc1C(=O)NC[C@@H](O)C(F)(F)F
[1]
  solubility: 177 µg/mL (≈ 447 µM)
[2]
  bioavailability: 32%
[3]
  Cmax: 271 nM
[4]
  EC50: 9 nM
[5]
  Activity: 100%
[6]
  clearance: 53 mL/min/kg
[7]
  Vd: 3.2 L/kg
[8]
  MRT: 1 h

## COc1nc(C(=O)NC[C@](C)(O)C(F)(F)F)c(N)cc1C(F)(F)F [ICENTICAFTOR]
[1]
  solubility: 237 µg/mL (≈ 656 µM)
[9]
  fraction unbound at 4 h, 5 µM: 0.097
[2]
  bioavailability: 90%
[10]
  Cmax: 1360 nM
[11]
  fCmax: 132 nM
[12]
  Vd: 3 L/kg
[13]
  MRT: 10.2 h
[14]
  bioavailability: 146%
[15]
  bioavailability: 26%
[16]
  Cmax: 1950 nM
[17]
  Cmax: 2300 nM
[18]
  fCmax: 102 nM
[19]
  fCmax: 276 nM
[20]
  clearance: 29 mL/min/kg
[21]
  clearance: 18 mL/min/kg
[22]
  clearance: 41 mL/min/kg
[23]
  clearance: 20.2 mL/min/kg
[24]
  Vd: 7.5 L/kg
[25]
  Vd: 3.5 L/kg
[26]
  MRT: 4.4 h
[27]
  MRT: 3.3 h
[4]
  EC50: 47 nM
[5]
  Activity: 96%
[28]
  EC50: 79 nM
[29]
  Activity: 92%
[30]
  EC50: 113 nM
[31]
  Activity: 79%
[32]
  EC50: 497 nM
[33]
  Activity: 40%
[34]
  EC50: 39 nM
[35]
  Activity: 84%
[36]
  EC50: 72 nM
[37]
  Activity: 87%
[38]
  NOAEL: 10 mg/kg
[39]
  Activity: Non-Toxic
[40]
  Activity: Non-Toxic
[41]
  clearance: 5 mL/min/kg
